Data taken from patent US10626081B2, “Farnesoid X receptor agonists and uses thereof” (Metacrine, Inc., priority 2015, dated 2020).

Assays:
FXR [1] = molecular target: T1, FXR (Homo sapiens, UniProt Q96RI1); experiment: In Vitro FXR Assay (PGL3): luciferase reporter in transfected CV-1 cells; type: cell-based; details: CV-1 cells transfected with hFXR, hRXR, PGL3-ECRE*6-luc; 18 h incubation; luminescence
T1 construct: expressed in transfected cells; host or cells: CV-1 cells
T1 sequence (Q96RI1 1-486): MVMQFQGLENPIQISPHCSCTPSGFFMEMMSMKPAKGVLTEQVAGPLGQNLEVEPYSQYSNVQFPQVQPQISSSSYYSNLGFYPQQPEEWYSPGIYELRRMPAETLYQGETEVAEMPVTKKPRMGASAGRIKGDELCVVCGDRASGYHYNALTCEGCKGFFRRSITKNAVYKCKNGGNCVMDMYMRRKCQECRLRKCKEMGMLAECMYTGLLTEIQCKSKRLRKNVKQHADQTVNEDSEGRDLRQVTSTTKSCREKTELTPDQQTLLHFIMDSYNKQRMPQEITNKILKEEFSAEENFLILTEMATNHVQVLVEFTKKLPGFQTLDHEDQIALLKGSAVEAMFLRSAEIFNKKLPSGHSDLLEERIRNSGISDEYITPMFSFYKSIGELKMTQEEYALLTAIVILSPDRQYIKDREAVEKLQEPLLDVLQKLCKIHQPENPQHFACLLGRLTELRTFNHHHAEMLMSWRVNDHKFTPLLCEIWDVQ
T1 sequence (P19793 1-462 partner): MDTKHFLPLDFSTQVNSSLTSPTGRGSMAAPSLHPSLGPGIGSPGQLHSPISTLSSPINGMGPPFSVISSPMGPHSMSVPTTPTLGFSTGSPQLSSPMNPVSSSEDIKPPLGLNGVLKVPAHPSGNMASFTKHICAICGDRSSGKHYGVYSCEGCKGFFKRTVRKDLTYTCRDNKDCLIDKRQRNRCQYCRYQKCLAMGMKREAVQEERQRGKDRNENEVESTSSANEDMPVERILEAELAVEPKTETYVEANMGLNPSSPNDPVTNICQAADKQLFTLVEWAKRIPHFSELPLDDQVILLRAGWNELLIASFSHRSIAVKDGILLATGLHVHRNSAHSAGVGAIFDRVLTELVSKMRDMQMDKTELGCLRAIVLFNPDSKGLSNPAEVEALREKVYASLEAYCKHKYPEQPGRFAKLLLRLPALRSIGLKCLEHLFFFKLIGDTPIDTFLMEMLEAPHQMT
Method: Example B-1: In Vitro FXR Assay (PGL3)
CV-1 cells were seeded at a density of 2,000,000 cells in a T175 flask with DMEM+10% charcoal double-stripped FBS and incubated at 37° C. in a 5% CO2 for 18 h (O/N).
After 18 h of incubation, the medium in the T175 flask was changed with fresh DMEM+10% charcoal super-stripped serum.
To prepare the transfection reaction mixture, the transfection reagent (X-tremeGENE HP from Roche, Cat #06 366 236 001) was added in to a 1.5 mL microcentrifuge tube labelled “A” at a ratio of 1:3 (DNA in transfection reagent in μL). OptiMEM medium (Life Technologies, Cat #31985-062) was added accordingly to provide a total volume of 1 mL. The transfection reaction mixture was then briefly vortexed and incubated at room temperature for 5 minutes.
In a separate 1.5 mL microcentrifuge tube labelled “B”, 100 μL OptiMEM and plasmids XPD90Gal pCMXhFXRfl, pCMXhRXRfl+PGL3-ECRE*6-luc+CMX-YFP in the ratio 2 μg:2 μg:18 μg:3 μg were added. This microcentrifuge tube “B” was then briefly vortexed and incubated at room temperature for 5 minutes.
The total volume in tube labelled “A” was then transferred in to tube labelled “B.” The mixture was then briefly vortexed and the transfection:DNA complex was then incubated for about 15-20 minutes at room temperature.
Following incubation, the transfection reagent/DNA mixture complex was then added to cells in the T175 flask and the cells were incubated at […] (O/N) at 37° C. in 5% CO2.
In a 96 well plate, a half logarithmic serial dilution was prepared. OptiMEM was used as the diluent. Using any of one of the compounds described herein, a compound stock solution of 10 mM was prepared. An initial 1:100 dilution was made into the first well for a final concentration of 100 μM. The final concentrations in the 96-well plate was prepared by using a multichannel pipette to transfer 5 μL of the diluted compound to 384-well plate in quadruplicate.
Cells in T175 flask were trypsinized and cells were resuspended in 40 mL phenol red free DMEM+10% charcoal super-stripped FBS. Typically, one T175 flask was sufficient to seed two 384 well plates. CV-1 cells were seeded at 45 μL cell suspension/well using a multi-channel pipet or a 384 multidrop dispenser. The cells were then incubated for 18 hrs, overnight.
After removing the plates from the incubator, the medium was flicked out of plate and 384 well plate was turned upside down onto paper towel. The remaining medium was gently tapped out. 15 μL lysis buffer was then added to each well using a multichannel pipet or a 384 well multi-drop dispenser. After incubation for 10 minutes at room temperature on shaker, 30 μL Luciferase buffer was added to each well. Luminescence counts were taken immediately using the Perkin Elmer Envision.
The ability of the compounds disclosed herein to […] FXR activity was quantified and the respective EC50 value was determined. Fex=fexaramine.

FXR [2] = molecular target: T1, FXR; experiment: In Vitro FXR Assay (TK): TK-ECRE-luc reporter in transfected CV-1 cells; type: cell-based; details: CV-1 cells transfected with hFXR, hRXR, 18 h incubation, luminescence
Summary of the method: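 CV-1 cells in charcoal-stripped FBS medium were transiently cotransfected with hFXR, hRXR, TK-ECRE-luc and pCMX-YFP plasmids. After 18 h, compounds serially diluted in DMSO were added for 18 h at 37 °C, 5% CO2, then cells were lysed and luminescence read.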

| Compound | Cmpd/Fex (ratio of the EC50 for the test compound relative to the EC50 of the Fexaramine control) (FXR [1]) | EC50 (FXR [2]) [nM] |
| --- | --- | --- |
| COC(=O)/C=C/c1cccc(N(Cc2ccc(-c3ccc(N(C)C)cc3)cc2)C(=O)C2CCCC2)c1 [compound 14, (E)-Methyl 3-(3-(N-((4′-(dimethylamino)-[1,1′-biphenyl]-4-yl)methyl)cyclopentanecarboxamido)phenyl)acrylate] | +++ (‘+++’ means Cmpd/Fex < 10) | ≤ 1000 |
| COC(=O)/C=C/c1cccc(N(Cc2ccc(-c3ccc(N(C)C)cc3)cc2)C(=O)C2CCCCCC2)c1 [compound 11, (E)-Methyl 3-(3-(N-((4′-(dimethylamino)-[1,1′-biphenyl]-4-yl)methyl)cycloheptanecarboxamido)phenyl)acrylate] | +++ (‘+++’ means Cmpd/Fex < 10) | ≤ 1000 |
| COC(=O)/C=C/c1cccc(N(Cc2ccc(-c3ccc(Cl)cc3)cc2)C(=O)C2CCCCC2)c1 [compound 34, (E)-Methyl 3-(3-(N-((4′-chloro-[1,1′-biphenyl]-4-yl)methyl)cyclohexanecarboxamido)phenyl)acrylate] | +++ (‘+++’ means Cmpd/Fex < 10) | 1000 to 10000 |
| COC(=O)/C=C/c1cccc(N(Cc2ccc(-c3ccc(N(C)C)cc3)cc2)C(=O)[C@H]2CC[C@@H](OC)CC2)c1 [compound 8, (E)-Methyl 3-(3-((1r,4r)-N-((4′-(dimethylamino)-[1,1′-biphenyl]-4-yl)methyl)-4-methoxycyclohexanecarboxamido)phenyl)acrylate] | +++ (‘+++’ means Cmpd/Fex < 10) | ≤ 1000 |
| COC(=O)/C=C/c1cccc(N(Cc2ccc(-c3ccncc3)cc2)C(=O)C2CCCCC2)c1 [compound 22, (E)-Methyl 3-(3-(N-(4-(pyridin-4-yl)benzyl)cyclohexanecarboxamido)phenyl) acrylate] | + (‘+’ means Cmpd/Fex > 100) | 1000 to 10000 |
| COC(=O)/C=C/c1cccc(N(Cc2ccc(-c3ccc(N(C)C)cc3)cc2)C(=O)[C@H]2CC[C@H](OC)CC2)c1 [compound 9, (E)-Methyl 3-(3-((1s,4s)-N-((4′-(dimethylamino)-[1,1′-biphenyl]-4-yl)methyl)-4-methoxycyclohexanecarboxamido)phenyl)acrylate] | +++ (‘+++’ means Cmpd/Fex < 10) | ≤ 1000 |
| COC(=O)/C=C/c1cccc(N(Cc2ccc(-c3ccc(OC)c(C#N)c3)cc2)C(=O)C2CCCCC2)c1 [compound 64, (E)-Methyl 3-(3-(N-((3′-cyano-4′-methoxy-[1,1′-biphenyl]-4-yl)methyl)cyclohexanecarboxamido)phenyl) acrylate] | +++ (‘+++’ means Cmpd/Fex < 10) | ≤ 1000 |
| COC(=O)CCc1cc(C)cc(N(Cc2ccc(-c3ccc(N(C)C)cc3)cc2)C(=O)C2CCCCC2)c1 [compound 90, Methyl 3-(3-(N-((4′-(dimethylamino)-[1,1′-biphenyl]-4-yl)methyl)cyclohexanecarboxamido)-5-methylphenyl)propanoate] | +++ (‘+++’ means Cmpd/Fex < 10) | 1000 to 10000 |
| COC(=O)/C=C/c1cccc(N(Cc2ccc(-c3ccc(N(C)C)cc3)cc2C)C(=O)C2CCCCC2)c1 [compound 54, (E)-Methyl 3-(3-(N-((4′-(dimethylamino)-3-methyl-[1,1′-biphenyl]-4-yl)methyl)cyclohexanecarboxamido)phenyl) acrylate] | +++ (‘+++’ means Cmpd/Fex < 10) | ≤ 1000 |
| COC(=O)CCc1cc(N(Cc2ccc(-c3ccc(N(C)C)cc3)cc2)C(=O)C2CCCCC2)ccc1C [compound 91, Methyl 3-(5-(N-((4′-(dimethylamino)-[1,1′-biphenyl]-4-yl)methyl)cyclohexanecarboxamido)-2-methylphenyl)propanoate] | + (‘+’ means Cmpd/Fex > 100) | > 10000 |
| COC(=O)/C=C/c1cccc(N(Cc2ccc(-c3ccc(N(C)C)cc3)cc2)C(=O)N2CCCCC2)c1 [compound 16] | ++ (‘++’ means Cmpd/Fex > 10 & < 100) | 1000 to 10000 |
| COC(=O)/C(C)=C/c1cccc(N(Cc2ccc(-c3ccc(N(C)C)cc3)cc2)C(=O)C2CCCCC2)c1 [compound 63, (E)-Methyl 3-(3-(N-((4′-(dimethylamino)-[1,1′-biphenyl]-4-yl)methyl)cyclohexanecarboxamido)phenyl)-2-methylacrylate] | +++ (‘+++’ means Cmpd/Fex < 10) | 1000 to 10000 |
| CN(C)c1ccc(-c2ccc(CN(C(=O)C3CCCCC3)c3cccc(/C=C/C(=O)O)c3)cc2)cc1 [compound 88, (E)-3-(3-(N-((4′-(dimethylamino)-[1,1′-biphenyl]-4-yl)methyl)cyclohexanecarboxamido)phenyl)acrylic acid] | + (‘+’ means Cmpd/Fex > 100) | > 10000 |
| COC(=O)/C=C/c1cccc(N(Cc2ccc(-c3ccc(O)cc3)cc2)C(=O)C2CCCCC2)c1 [compound 57, (E)-Methyl 3-(3-(N-((4′-hydroxy-[1,1′-biphenyl]-4-yl)methyl)cyclohexanecarboxamido)phenyl) acrylate] | + (‘+’ means Cmpd/Fex > 100) | > 10000 |
| COC(=O)/C=C/c1cccc(N(Cc2ccc(-c3ccc(N(C)C)cc3)cc2F)C(=O)C2CCCCC2)c1 [compound 51, (E)-methyl 3-(3-(N-((4′-(dimethylamino)-3-fluoro-[1,1′-biphenyl]-4-yl)methyl)cyclohexanecarboxamido)phenyl)acrylate] | +++ (‘+++’ means Cmpd/Fex < 10) | ≤ 1000 |
| COC(=O)C#Cc1cccc(N(Cc2ccc(-c3ccc(N(C)C)cc3)cc2)C(=O)C2CCCCC2)c1 [compound 87, Methyl 3-(3-(N-((4′-(Dimethylamino)-[1,1′-biphenyl]-4-yl)methyl)cyclohexanecarboxamido)phenyl) propiolate] | +++ (‘+++’ means Cmpd/Fex < 10) | ≤ 1000 |
